Consider one molecule from US12594263B2, “CBL inhibitors and compositions for expansion of immune cells” (Nurix Therapeutics, Inc., priority 2019, dated 2026).

The subject of this experiment is E.G7-OVA tumors. Description: Oral Cbl inhibitor treatment of mice given expanded OT-1 cells. The class given is in vivo, mouse. The procedure: Tumor volume was measured roughly every five days after cell transfer.
OT-1 cells were assessed in mouse blood 5 days and 20 days after transfer.

The mark [1] stands for this setting: 5 days and 20 days after transfer (FIGS. 20A, 20B).

With `C[C@H]1CCCN(Cc2cc3c(c(C(F)(F)F)c2)CN(c2cccc([C@]4(c5nncn5C)C[C@@H](C)C4)c2)C3=O)C1` [Compound 116], under setting [1], the “Frequency of OT-1 cells in mouse blood” value was “increased frequency of OT-1 cells” and the “Persistence of OT-1 cells in mouse blood” value is given as “longer persistence of OT-1 cells”. Also, the “Anti-tumor efficacy of OT-1 cells expanded with compound 103 plus IL-2 (tumor volume)” value (oral administration (FIG. 18)) is on record as “enhanced the anti-tumor efficacy”. In addition, the “Survival of mice treated with OT-1 cells expanded with compound 103 plus IL-2” value (oral administration (FIG. 19)) is listed as “enhanced survival”.
